Assay results reported in US20100129434A1, “COMPOSITIONS AND METHODS FOR THE TREATMENT OF MUCORMYCOSIS AND OTHER FUNGAL DISEASES” (priority 2006, published 2010).
≈ marks a conversion by molar mass, not a printed value. Like-named read-outs stand apart in the source and are kept apart here.

Tested on: R. oryzae
Assay: Deferasirox susceptibility testing (MIC/MFC), R. oryzae isolates
Type: cell-based, Rhizopus oryzae
Settings: for MFC / MIC: Rhizopus arrhizus; for MFC: read-out: MFC; for MIC: read-out: MIC
Description: Minimum inhibitory concentration (MIC) and minimum fungicidal concentration (MFC) were determined for deferasirox by the method of Espinel-Ingroff using R. oryzae spores starved for iron (Espinel-Ingroff, (2001), supra). Cidality was defined as a <4-fold difference between MIC and MFC.
We next determined the deferasirox susceptibilities of multiple clinical isolates of Mucorales (Table 3). The MIC9OS of deferasirox against Mucor, non-oryzae Rhizopus spp., and R. oryzae were 3.12 to 6.25 μg/ml. MFCs were similar to MICs, and deferasirox was cidal for 28/29 (97%) of isolates. Of note, slight growth was seen within the first twelve hours even at extremely high concentrations of deferasirox. […] Furthermore, the MICs and MFCs of deferasirox against these isolates were well below clinically achievable peak (˜38 μg/ml) and trough serum levels (˜17 μg/ml) of the drug at steady state when administered at the FDA-approved starting dose (20 mg/kg/d).

[1] = 24 h, R. oryzae pyr17 pyrG−/−, 24 h
[2] = 24 h, R. orzae type II 10206, 24 h

O=C(O)c1ccc(-n2nc(-c3ccccc3O)nc2-c2ccccc2O)cc1 [Deferasirox, 4-[3,5-Bis(2-hydroxyphenyl)-1H-1,2,4-triazol-1-yl]-benzoic acid]
Fungicidal? (R. oryzae 99-133, 24 h): Y (Cidal = MFC/MIC ≦ 4)
Fungicidal? (R. oryzae 99-133, 48 h): Y (Cidal = MFC/MIC ≦ 4)
Fungicidal? (R. oryzae 99-880, 24 h): Y (Cidal = MFC/MIC ≦ 4)
Fungicidal? (R. oryzae 99-880, 48 h): Y (Cidal = MFC/MIC ≦ 4)
Fungicidal? (R. oryzae 99-892, 24 h): Y (Cidal = MFC/MIC ≦ 4)
Fungicidal? (R. oryzae 99-892, 48 h): Y (Cidal = MFC/MIC ≦ 4)
Fungicidal? (R. oryzae 729-02, 24 h): Y (Cidal = MFC/MIC ≦ 4)
Fungicidal? (R. oryzae 729-02, 48 h): Y (Cidal = MFC/MIC ≦ 4)
Fungicidal? (R. oryzae HUMC 02, 24 h): Y (Cidal = MFC/MIC ≦ 4)
Fungicidal? (R. oryzae HUMC 02, 48 h): Y (Cidal = MFC/MIC ≦ 4)
Fungicidal? (R. oryzae MIC90/MFC90, 24 h): Y (Cidal = MFC/MIC ≦ 4)
MFC90 (R. oryzae MIC90/MFC90, 24 h): 12.5 µg/mL (≈ 33.5 µM)
Fungicidal? (R. oryzae MIC90/MFC90, 48 h): Y (Cidal = MFC/MIC ≦ 4)
MFC90 (R. oryzae MIC90/MFC90, 48 h): 6.25 µg/mL (≈ 16.7 µM)
Fungicidal? (R. oryzae pyr17 pyrG−/−, 24 h): Y (Cidal = MFC/MIC ≦ 4)
Fungicidal? (R. oryzae pyr17 pyrG−/−, 48 h): Y (Cidal = MFC/MIC ≦ 4)
Fungicidal? (R. oryzae type 1 NRRL13440, 24 h): N (Cidal = MFC/MIC ≦ 4)
Fungicidal? (R. oryzae type 1 NRRL13440, 48 h): N (Cidal = MFC/MIC ≦ 4)
Fungicidal? (R. oryzae type I NRRL 6059, 24 h): Y (Cidal = MFC/MIC ≦ 4)
Fungicidal? (R. oryzae type I NRRL 6059, 48 h): Y (Cidal = MFC/MIC ≦ 4)
Fungicidal? (R. oryzae type I NRRL 10206, 24 h): Y (Cidal = MFC/MIC ≦ 4)
Fungicidal? (R. oryzae type I NRRL 10206, 48 h): Y (Cidal = MFC/MIC ≦ 4)
Fungicidal? (R. oryzae type I NRRL11823, 24 h): Y (Cidal = MFC/MIC ≦ 4)
Fungicidal? (R. oryzae type I NRRL11823, 48 h): Y (Cidal = MFC/MIC ≦ 4)
Fungicidal? (R. oryzae type I NRRL13142, 24 h): Y (Cidal = MFC/MIC ≦ 4)
Fungicidal? (R. oryzae type I NRRL13142, 48 h): Y (Cidal = MFC/MIC ≦ 4)
Fungicidal? (R. oryzae type I NRRL13533, 24 h): Y (Cidal = MFC/MIC ≦ 4)
Fungicidal? (R. oryzae type I NRRL13533, 48 h): Y (Cidal = MFC/MIC ≦ 4)
Fungicidal? (R. oryzae type I NRRL 21251, 24 h): Y (Cidal = MFC/MIC ≦ 4)
Fungicidal? (R. oryzae type I NRRL 21251, 48 h): Y (Cidal = MFC/MIC ≦ 4)
Fungicidal? (R. oryzae type I NRRL21396, 24 h): Y (Cidal = MFC/MIC ≦ 4)
Fungicidal? (R. oryzae type I NRRL21396, 48 h): Y (Cidal = MFC/MIC ≦ 4)
Fungicidal? (R. oryzae type I NRRL21409, 24 h): Y (Cidal = MFC/MIC ≦ 4)
Fungicidal? (R. oryzae type I NRRL21409, 48 h): Y (Cidal = MFC/MIC ≦ 4)
Fungicidal? (R. oryzae type II NRRL 18148, 24 h): Y (Cidal = MFC/MIC ≦ 4)
Fungicidal? (R. oryzae type II NRRL 18148, 48 h): Y (Cidal = MFC/MIC ≦ 4)
Fungicidal? (R. oryzae type II NRRL 21446, 24 h): Y (Cidal = MFC/MIC ≦ 4)
Fungicidal? (R. oryzae type II NRRL 21446, 48 h): Y (Cidal = MFC/MIC ≦ 4)
Fungicidal? (R. oryzae type II NRRL 21447, 24 h): Y (Cidal = MFC/MIC ≦ 4)
Fungicidal? (R. oryzae type II NRRL 21447, 48 h): Y (Cidal = MFC/MIC ≦ 4)
Fungicidal? (R. oryzae type II NRRL 21477, 24 h): Y (Cidal = MFC/MIC ≦ 4)
Fungicidal? (R. oryzae type II NRRL 21477, 48 h): Y (Cidal = MFC/MIC ≦ 4)
Fungicidal? (R. oryzae type II NRRL 21628, 24 h): Y (Cidal = MFC/MIC ≦ 4)
Fungicidal? (R. oryzae type II NRRL 21628, 48 h): Y (Cidal = MFC/MIC ≦ 4)
Fungicidal? (R. oryzae type II NRRL 21789, 24 h): Y (Cidal = MFC/MIC ≦ 4)
Fungicidal? (R. oryzae type II NRRL 21789, 48 h): Y (Cidal = MFC/MIC ≦ 4)
Fungicidal? (R. orzae type II 10206, 24 h): Y (Cidal = MFC/MIC ≦ 4)
Fungicidal? (R. orzae type II 10206, 48 h): Y (Cidal = MFC/MIC ≦ 4)
MFC (24 h, R. oryzae 99-133, 24 h): 6.25 µg/mL (≈ 16.7 µM)
MIC (24 h, R. oryzae 99-133, 24 h): 6.25 µg/mL (≈ 16.7 µM)
MFC (24 h, R. oryzae 99-880, 24 h): 3.12 µg/mL (≈ 8.36 µM)
MIC (24 h, R. oryzae 99-880, 24 h): 3.12 µg/mL (≈ 8.36 µM)
MFC (24 h, R. oryzae 99-892, 24 h): 1.56 µg/mL (≈ 4.18 µM)
MIC (24 h, R. oryzae 99-892, 24 h): 1.56 µg/mL (≈ 4.18 µM)
MFC (24 h, R. oryzae 729-02, 24 h): 12.5 µg/mL (≈ 33.5 µM)
MIC (24 h, R. oryzae 729-02, 24 h): 12.5 µg/mL (≈ 33.5 µM)
MFC (24 h, R. oryzae HUMC 02, 24 h): 12.5 µg/mL (≈ 33.5 µM)
MIC (24 h, R. oryzae HUMC 02, 24 h): 12.5 µg/mL (≈ 33.5 µM)
MFC [1]: 0.78 µg/mL (≈ 2.09 µM)
MIC [1]: 0.78 µg/mL (≈ 2.09 µM)
MFC [2]: 3.12 µg/mL (≈ 8.36 µM)
MIC [2]: 3.12 µg/mL (≈ 8.36 µM)
MFC (48 h, R. oryzae 99-133, 48 h): 6.25 µg/mL (≈ 16.7 µM)
MIC (48 h, R. oryzae 99-133, 48 h): 1.56 µg/mL (≈ 4.18 µM)
MFC (48 h, R. oryzae 99-880, 48 h): 3.12 µg/mL (≈ 8.36 µM)
MIC (48 h, R. oryzae 99-880, 48 h): 3.12 µg/mL (≈ 8.36 µM)
MFC (48 h, R. oryzae 99-892, 48 h): 1.56 µg/mL (≈ 4.18 µM)
MIC (48 h, R. oryzae 99-892, 48 h): 1.56 µg/mL (≈ 4.18 µM)
MFC (48 h, R. oryzae 729-02, 48 h): 6.25 µg/mL (≈ 16.7 µM)
